Converted amounts (≈) assume the structure as drawn. Read-outs that look alike come from different tables or passages of the source.

We go through eleven compounds from patent US4188321A, “25-Desacetyl rifamycins” (Gruppo Lepetit S.p.A., priority 1966, dated 1980).

Data set [1] is described as follows: solubility in buffer solution. It counts as physicochemical. As to conditions: pH 7.5, aqueous buffer. How it is done: Said solubilities are given in g. of rifamycin % ml. of buffer solution (pH=7,5 and t=22° C.). DA means desacetyl.
Data set [2] in a line: in vivo. To be noted: mouse.

As a reminder, the solubility is the dissolved amount per volume that the medium holds. On to `CCN(CC)Cc1c2c(O)c3c(O)c(C)c4c(c3c1O)C(=O)C(C)(OC=CC(OC)C(C)C(O)C(C)C(O)C(C)C(O)C(C)C=CC=C(C)C(=O)N2)O4` (stereo not shown) [25-DA-3-diethylaminomethyl-rifamycin SV, 25-desacetyl-3-diethylaminomethyl-rifamycin SV], for which the concentration in solution in data set [1] (buffer) (solubility) was 1260 µg/mL (≈ 1700 µM).
Same read-out and setting: the same measure for `CCN(CC)Cc1c2c(O)c3c(O)c(C)c4c(c3c1O)C(=O)C(C)(OC=CC(OC)C(C)C(OC(C)=O)C(C)C(O)C(C)C(O)C(C)C=CC=C(C)C(=O)N2)O4` (stereo not shown) [3-diethylaminomethyl-rifamycin SV, reference compound]: 420 µg/mL (≈ 536 µM).
In general, LD50 refers to the dose at which mortality reaches 50%. In data set [2] (iv), `CCN(CC)C(=O)COc1cc2c(O)c3c(O)c(C)c4c(c13)C(=O)C(C)(OC=CC(OC)C(C)C(O)C(C)C(O)C(C)C(O)C(C)C=CC=C(C)C(=O)N2)O4` (stereo not shown) [25-DA-rifamycin B diethylamide] gave an LD50 of 600 mg/kg.
For `COC1C=COC2(C)Oc3c(C)c(O)c4c(O)c(c(C=O)c(O)c4c3C2=O)NC(=O)C(C)=CC=CC(C)C(O)C(C)C(O)C(C)C(O)C1C` (stereo not shown) [25-DA-3-formyl-rifamycin SV], in data set [1] (buffer), the concentration in solution (solubility) came to 34300 µg/mL (≈ 50200 µM). In data set [2] (ip, acute toxicity, mice), this compound displayed an LD50 of 550 mg/kg.
As to `COC1C=COC2(C)Oc3c(C)c(O)c4c(O)c(c(C=NN5CCN(C)CC5)c(O)c4c3C2=O)NC(=O)C(C)=CC=CC(C)C(O)C(C)C(O)C(C)C(OC(C)=O)C1C` (stereo not shown) [3-(4-methyl-piperazinyl-iminomethyl)-rifamycin SV, reference compound], the solubility in data set [1] (buffer solution, pH = 7,5, 22° C., read-out: Solubility) worked out at 2850 µg/mL (≈ 3460 µM). In data set [2] (ip, acute toxicity, mice), this compound registered an LD50 of 460 mg/kg.
`COC1C=COC2(C)Oc3c(C)c(O)c4c(O)c(c(C=NN5CCN(C)CC5)c(O)c4c3C2=O)NC(=O)C(C)=CC=CC(C)C(O)C(C)C(O)C(C)C(O)C1C` (stereo not shown) [25-DA-3-(4-methyl-piperazinyl-iminomethyl)-rifamycin SV] returned a solubility in data set [1] (buffer) of 7600 µg/mL (≈ 9730 µM). This compound gave a 50% lethal dose (LD50) in data set [2] (ip, acute toxicity, mice) of 850 mg/kg.
As to `COC1C=COC2(C)Oc3c(C)c(O)c4c(O)c(c(CN5CCCC5)c(O)c4c3C2=O)NC(=O)C(C)=CC=CC(C)C(O)C(C)C(O)C(C)C(OC(C)=O)C1C` (stereo not shown) [3-pyrrolidino-methyl-rifamycin SV, reference compound], the concentration in solution in data set [1] (buffer) (solubility) was 60 µg/mL (≈ 76.8 µM).
For the compound `COC1C=COC2(C)Oc3c(C)c(O)c4c(O)c(c(CN5CCCC5)c(O)c4c3C2=O)NC(=O)C(C)=CC=CC(C)C(O)C(C)C(O)C(C)C(O)C1C` (stereo not shown) [25-DA-3-pyrrolidino-methyl-rifamycin SV], the solubility in data set [1] (buffer) was 2800 µg/mL (≈ 3790 µM).
The compound `CON=Cc1c2c(O)c3c(O)c(C)c4c(c3c1O)C(=O)C(C)(OC=CC(OC)C(C)C(O)C(C)C(O)C(C)C(O)C(C)C=CC=C(C)C(=O)N2)O4` (stereo not shown) [25-DA-3-methoximinomethyl-rifamycin SV] gave a solubility in data set [1] (buffer) of 340 µg/mL (≈ 477 µM). The same compound came in with a 50% lethal dose (LD50) in data set [2] (ip, acute toxicity, mice) of 560 mg/kg.
As to `COC1C=COC2(C)Oc3c(C)c(O)c4c(O)c(c(C=O)c(O)c4c3C2=O)NC(=O)C(C)=CC=CC(C)C(O)C(C)C(O)C(C)C(OC(C)=O)C1C` (stereo not shown) [3-formyl-rifamycin SV, reference compound], in data set [1] (buffer), the solubility came to 6400 µg/mL (≈ 8820 µM). Further, in data set [2] (ip, acute toxicity, mice), the LD50 stood at 300 mg/kg.
In data set [1] (buffer), `CON=Cc1c2c(O)c3c(O)c(C)c4c(c3c1O)C(=O)C(C)(OC=CC(OC)C(C)C(OC(C)=O)C(C)C(O)C(C)C(O)C(C)C=CC=C(C)C(=O)N2)O4` (stereo not shown) [3-methoximinomethyl-rifamycin SV, reference compound] displayed a solubility of 150 µg/mL (≈ 199 µM).
